{"source": "patent US5635608A", "about": "“α-carboxy caged compounds” (Molecular Probes, Inc., priority 1994, dated 1997)", "tested_on": "whole neuron", "test": "Release of a caged neurotransmitter in situ: whole-cell current of a neuron before and on photolysis", "type": "cell-based", "source_text": "FIG. 2: The photolysis of a caged probe in situ, as described in Example 15.\nA whole neuron is bathed in a solution of γ-(α-carboxy o-nitrobenzyl)-caged glutamic acid (3), as described in Example 1. The whole-cell current is then monitored as the neuron is photolyrically illuminated at 343 nm. […] This indicates both that the uncaging of a CNB-caged probe is extremely rapid, but also verifies that the caged neurotransmitter is inert in situ until uncaged."}
{"smiles": "N[C@@H](CCC(=O)OC(C(=O)O)c1ccccc1[N+](=O)[O-])C(=O)O", "note": "(stereo partly drawn) [Compound 3, L-Glutamic Acid, γ-(α-carboxy-o-nitrobenzyl) ester]", "values": [{"measurement": "whole-cell current on photolytic illumination", "setting": "illumination at 343 nm, begun at time=0 ms, FIG. 2", "result": "increases rapidly"}, {"measurement": "activity of the caged neurotransmitter in situ before uncaging (whole-cell current)", "setting": "whole neuron bathed in solution of caged glutamic acid, before illumination", "result": "inert"}]}
